Numbers after ± are expanded uncertainties.
Assay: mn = molality of the nth substance listed, in mol/kg
Conditions: 101 kPa, Liquid; for speed of sound: Pulse-echo method

O=C[C@H](O)[C@H](O)[C@H](O)CO [D-ribose] + O
Conditions	mass density, 293.15 K [kg/m3]	mass density, 298.15 K [kg/m3]	mass density, 303.15 K [kg/m3]	mass density, 308.15 K [kg/m3]	mass density, 313.15 K [kg/m3]	speed of sound, 293.15 K [m/s]	speed of sound, 298.15 K [m/s]	speed of sound, 303.15 K [m/s]	speed of sound, 308.15 K [m/s]	speed of sound, 313.15 K [m/s]
m1 = 0.05	1001.07 ± 0.7	999.887 ± 0.72	998.463 ± 0.72	996.819 ± 0.73	994.955 ± 0.71	1485.2 ± 2.4	1499.2 ± 2.5	1511.3 ± 2.4	1521.9 ± 2.4	1530.9 ± 2.3
m1 = 0.055	1001.36 ± 0.7	1000.17 ± 0.72	998.749 ± 0.72	997.103 ± 0.73	995.237 ± 0.71	1485.4 ± 2.4	1499.4 ± 2.5	1511.5 ± 2.5	1522 ± 2.4	1531 ± 2.3
m1 = 0.06	1001.65 ± 0.7	1000.47 ± 0.69	999.035 ± 0.69	997.383 ± 0.7	995.517 ± 0.71	1485.6 ± 2.4	1499.5 ± 2.4	1511.6 ± 2.4	1522.2 ± 2.4	1531.2 ± 2.3
m1 = 0.065	1001.94 ± 0.7	1000.75 ± 0.7	999.317 ± 0.69	997.667 ± 0.7	995.796 ± 0.71	1485.8 ± 2.4	1499.7 ± 2.4	1511.8 ± 2.4	1522.3 ± 2.4	1531.3 ± 2.3
m1 = 0.07	1002.23 ± 0.7	1001.04 ± 0.7	999.606 ± 0.69	997.954 ± 0.7	996.076 ± 0.7	1485.9 ± 2.4	1499.8 ± 2.4	1511.9 ± 2.4	1522.5 ± 2.4	1531.4 ± 2.4
m1 = 0.075	1002.52 ± 0.7	1001.33 ± 0.7	999.887 ± 0.69	998.237 ± 0.7	996.357 ± 0.7	1486.1 ± 2.4	1500 ± 2.5	1512 ± 2.4	1522.6 ± 2.4	1531.6 ± 2.4
m1 = 0.08	1002.82 ± 0.71	1001.62 ± 0.7	1000.17 ± 0.69	998.519 ± 0.69	996.637 ± 0.7	1486.2 ± 2.4	1500.1 ± 2.5	1512.2 ± 2.4	1522.7 ± 2.4	1531.7 ± 2.4
m1 = 0.085	1003.11 ± 0.71	1001.91 ± 0.7	1000.47 ± 0.69	998.806 ± 0.69	996.917 ± 0.7	1486.4 ± 2.4	1500.2 ± 2.5	1512.2 ± 2.5	1522.8 ± 2.4	1531.8 ± 2.4
m1 = 0.09	1003.4 ± 0.71	1002.21 ± 0.7	1000.75 ± 0.69	999.089 ± 0.69	997.196 ± 0.7	1486.5 ± 2.5	1500.3 ± 2.5	1512.4 ± 2.5	1523 ± 2.5	1532 ± 2.4
m1 = 0.1	1003.98 ± 0.71	1002.79 ± 0.68	1001.33 ± 0.67	999.652 ± 0.67	997.754 ± 0.69	1486.8 ± 2.5	1500.6 ± 2.5	1512.6 ± 2.5	1523.2 ± 2.5	1532.2 ± 2.4

CC(C)C[C@H](N)C(=O)O [L-leucine] + O
Conditions	mass density, 293.15 K [kg/m3]	mass density, 298.15 K [kg/m3]	mass density, 303.15 K [kg/m3]	mass density, 308.15 K [kg/m3]	mass density, 313.15 K [kg/m3]	speed of sound, 293.15 K [m/s]	speed of sound, 298.15 K [m/s]	speed of sound, 303.15 K [m/s]	speed of sound, 308.15 K [m/s]	speed of sound, 313.15 K [m/s]
m1 = 0.025	998.94 ± 0.69	997.765 ± 0.7	996.352 ± 0.7	994.719 ± 0.7	992.893 ± 0.7	1486.2 ± 2.4	1500.2 ± 2.4	1512.3 ± 2.3	1522.8 ± 2.3	1531.7 ± 2.3
m1 = 0.05	999.543 ± 0.68	998.36 ± 0.69	996.938 ± 0.7	995.302 ± 0.7	993.464 ± 0.71	1489.2 ± 2.4	1502.9 ± 2.4	1515 ± 2.3	1525.4 ± 2.3	1534.2 ± 2.3
m1 = 0.1	1000.6 ± 0.68	999.369 ± 0.68	997.956 ± 0.69	996.293 ± 0.7	994.341 ± 0.7	1495.2 ± 2.4	1508.8 ± 2.3	1520.6 ± 2.3	1530.8 ± 2.3	1539.4 ± 2.3
